US10435399B2, “HDAC6 inhibitory heterocyclic compound” (TAKEDA PHARMACEUTICAL COMPANY LIMITED, priority 2017, dated 2019)

Molecular target: T1, HDAC6 enzyme (Homo sapiens, UniProt Q9UBN7)
T1 construct: transducing full length HDAC6 gene into Sf-9 insect cells; GST; purchased SignalChem; host or cells: Sf-9 insect cells
T1 sequence (Q9UBN7 1-1215): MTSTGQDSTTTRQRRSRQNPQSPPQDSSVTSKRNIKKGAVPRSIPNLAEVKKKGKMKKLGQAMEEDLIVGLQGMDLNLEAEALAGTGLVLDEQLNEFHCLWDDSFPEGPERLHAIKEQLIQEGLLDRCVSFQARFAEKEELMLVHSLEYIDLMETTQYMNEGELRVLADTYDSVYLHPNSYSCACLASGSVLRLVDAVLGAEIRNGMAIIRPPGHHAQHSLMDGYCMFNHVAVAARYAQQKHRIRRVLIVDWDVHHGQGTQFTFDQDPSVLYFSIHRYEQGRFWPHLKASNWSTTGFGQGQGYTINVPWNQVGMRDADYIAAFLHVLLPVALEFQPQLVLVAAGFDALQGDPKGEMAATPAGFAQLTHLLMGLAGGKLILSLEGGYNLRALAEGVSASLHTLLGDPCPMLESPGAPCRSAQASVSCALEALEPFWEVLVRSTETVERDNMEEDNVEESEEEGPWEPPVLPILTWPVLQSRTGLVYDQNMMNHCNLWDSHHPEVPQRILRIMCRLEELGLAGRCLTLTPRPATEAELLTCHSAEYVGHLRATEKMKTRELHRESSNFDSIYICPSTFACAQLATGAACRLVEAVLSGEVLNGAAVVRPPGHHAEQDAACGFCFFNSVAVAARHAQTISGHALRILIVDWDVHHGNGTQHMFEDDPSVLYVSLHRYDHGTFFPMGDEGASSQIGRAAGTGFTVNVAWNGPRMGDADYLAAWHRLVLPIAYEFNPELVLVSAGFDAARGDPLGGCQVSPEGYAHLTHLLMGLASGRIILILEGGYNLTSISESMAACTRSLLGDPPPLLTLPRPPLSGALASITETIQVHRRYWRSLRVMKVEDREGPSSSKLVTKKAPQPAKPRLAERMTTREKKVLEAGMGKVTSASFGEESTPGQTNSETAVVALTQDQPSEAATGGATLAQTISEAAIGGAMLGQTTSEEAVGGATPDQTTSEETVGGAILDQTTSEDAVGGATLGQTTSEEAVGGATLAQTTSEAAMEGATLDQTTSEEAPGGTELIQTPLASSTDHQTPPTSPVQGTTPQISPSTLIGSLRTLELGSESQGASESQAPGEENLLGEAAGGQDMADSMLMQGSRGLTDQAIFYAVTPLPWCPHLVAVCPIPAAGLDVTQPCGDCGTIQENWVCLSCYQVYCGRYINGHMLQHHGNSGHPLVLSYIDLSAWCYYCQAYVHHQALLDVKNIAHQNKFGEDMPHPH
Assay: HDAC6 enzyme inhibitory activity (HDAC-Glo I/II Assay kit)
Assay type: biochemical
Conditions: 10 μM; wells without enzyme = 100% inhibition
In short: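 Sf-9-derived GST-purified full-length HDAC6 + cpd, 60 min RT, 24 mM Tris pH 7.5/0.6 mM glutathione/0.01% Tween-20; add HDAC-Glo substrate-developer, 20 min RT; luminescence. No-enzyme = 100% inhibition.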

For `O=C1c2cc(-c3nnc(C(F)F)o3)cnc2CN1[C@@H]1CCCC[C@H]1c1ccccn1` (relative stereo) [Example 588, 3-(5-(difluoromethyl)-1,3,4-oxadiazol-2-yl)-6-((1R*,2R*)-2-(pyridin-2-yl)cyclohexyl)-6,7-dihydro-5H-pyrrolo[3,4-b]pyridin-5-one (optical isomer)], the “HDAC6 inhibitory rate (%) (10 μM)” value was 100%.

Same assay, conditions: 10 μM; wells without enzyme = 100% inhibition; read-out: HDAC6 inhibitory rate (%) (10 μM)

Compared with `O=C1c2cc(-c3nnc(C(F)F)o3)ccc2CN1c1ccccc1-c1cnc(OCC(F)(F)F)nc1` [Example 322, 6-(5-(difluoromethyl)-1,3,4-oxadiazol-2-yl)-2-(2-(2-(2,2,2-trifluoroethoxy)-pyrimidin-5-yl)phenyl)-isoindolin-1-one], `CCOc1cnccc1-c1ccccc1N1Cc2ccc(-c3nnc(C(F)F)o3)cc2C1=O` [Example 291, 6-(5-(difluoromethyl)-1,3,4-oxadiazol-2-yl)-2-(2-(3-ethoxypyridin-4-yl)-phenyl)isoindolin-1-one] is higher in inhibition at 10 µM: 23% for the first, 98% for the second.

Compared with `CCOC(=O)N1CCC(N2Cc3ccc(-c4nnc(C(F)F)o4)cc3C2=O)CC1` [Example 130, ethyl 4-(6-(5-(difluoromethyl)-1,3,4-oxadiazol-2-yl)-1-oxo-1,3-dihydro-2H-isoindol-2-yl)piperidine-1-carboxylate], `N[C@H]1CCCC[C@H]1N1Cc2ccc(-c3nnc(C(F)F)o3)cc2C1=O` [Example 256] is lower in inhibition at 10 µM: 93% for the first, 91% for the second.

Going from `O=C1c2cc(-c3nnc(C(F)F)o3)ccc2CN1c1cccc(Cl)c1-c1cccc(F)c1` [Example 404, 2-(6-chloro-3′-fluoro-biphenyl-2-yl)-6-(5-(difluoro-methyl)-1,3,4-oxadiazol-2-yl) isoindolin-1-one] to `O=C1c2cc(-c3nnc(C(F)F)o3)ccc2CN1c1ccccc1-c1ccccc1F` [Example 277, 6-(5-(difluoromethyl)-1,3,4-oxadiazol-2-yl)-2-(2'-fluorobiphenyl-2-yl)isoindolin-1-one], the inhibition at 10 µM falls from 100% to 97%.

Going from `N#Cc1ccc(N2Cc3ccc(-c4nnc(C(F)F)o4)cc3C2=O)c(-c2cnn(C(F)F)c2)c1` [Example 444, 4-(6-(5-(difluoro-methyl)-1,3,4-oxadiazol-2-yl)-1-oxo-1,3-dihydro-2H-isoindol-2-yl)-3-(1-(difluoro-methyl)-1H-pyrazol-4-yl) benzonitrile] to `O=C1c2cc(-c3nnc(C(F)F)o3)ccc2CN1c1cccc(F)c1-c1cnn(C(F)F)c1` [Example 396, 6-(5-(difluoro-methyl)-1,3,4-oxadiazol-2-yl)-2-(2-(1-(difluoromethyl)-1H-pyrazol-4-yl)-3-fluorophenyl) isoindolin-1-one], the inhibition at 10 µM rises from 100% to 101%.

Compared with `Cn1cc(N2Cc3ccc(-c4nnc(C(F)F)o4)cc3C2=O)c(-c2ccccc2)n1` [Example 493, 6-(5-(difluoro-methyl)-1,3,4-oxadiazol-2-yl)-2-(1-methyl-3-phenyl-1H-pyrazol-4-yl) isoindolin-1-one], `O=C1c2cc(-c3nnc(C(F)F)o3)ccc2CN1c1ccccc1-c1ccccn1` [Example 238, 6-(5-(difluoromethyl)-1,3,4-oxadiazol-2-yl)-2-(2-(pyridin-2-yl)phenyl)isoindolin-1-one] is higher in inhibition at 10 µM: 99% for the first, 100% for the second.

`O=C1c2cc(-c3nnc(C(F)F)o3)ccc2CN1Cc1cncc(C(F)(F)F)c1` [Example 144, 6-(5-(difluoromethyl)-1,3,4-oxadiazol-2-yl)-2-((5-(trifluoromethyl)pyridin-3-yl)methyl)isoindolin-1-one] and `O=C1c2cc(-c3nnc(C(F)F)o3)cnc2CN1Cc1cccnc1` [Example 359, 3-(5-(difluoromethyl)-1,3,4-oxadiazol-2-yl)-6-(pyridin-3-ylmethyl)-6,7-dihydro-5H-pyrrolo[3,4-b]pyridin-5-one] are the same in inhibition at 10 µM: 97% for the first, 97% for the second.

First: O=C(N[C@H]1[C@H](N2Cc3ccc(-c4nnc(C(F)F)o4)cc3C2=O)CCCC1(F)F)OCc1ccccc1 [Example 510, benzyl ((1S,6R)-6-(6-(5-(difluoromethyl)-1,3,4-oxadiazol-2-yl)-1-oxo-1,3-dihydro-2H-isoindol-2-yl)-2,2-difluorocyclohexyl)carbamate]
Second: COC(=O)N[C@H]1CCCC[C@H]1N1Cc2ccc(-c3nnc(C(F)F)o3)cc2C1=O [Example 262, methyl ((1S,2R)-2-(6-(5-(difluoromethyl)-1,3,4-oxadiazol-2-yl)-1-oxo-1,3-dihydro-2H-isoindol-2-yl)cyclohexyl)carbamate]
The inhibition at 10 µM of the first is higher: 100% for the first, 98% for the second.

Going from `N[C@H]1COCC[C@H]1N1Cc2c(F)cc(-c3nnc(C(F)F)o3)cc2C1=O` [Example 364, 2-((3R,4R)-3-amino-tetrahydro-2H-pyran-4-yl)-6-(5-(difluoromethyl)-1,3,4-oxadiazol-2-yl)-4-fluoroisoindolin-1-one] to `CC(F)(F)C(=O)N[C@@H]1CCCC[C@H]1N1Cc2c(F)cc(-c3nnc(C(F)F)o3)cc2C1=O` [Example 184, N-((1R,2R)-2-(6-(5-(difluoromethyl)-1,3,4-oxadiazol-2-yl)-4-fluoro-1-oxo-1,3-dihydro-2H-isoindol-2-yl)cyclohexyl)-2,2-difluoropropanamide], the inhibition at 10 µM rises from 87% to 102%.

Going from `O=C1c2cc(-c3nnc(C(F)F)o3)cnc2CN1[C@@H]1CCCC[C@H]1Oc1cncc(F)c1` (racemic) [Example 585, 3-(5-(difluoromethyl)-1,3,4-oxadiazol-2-yl)-6-((1RS,2RS)-2-((5-fluoropyridin-3-yl)oxy)cyclohexyl)-6,7-dihydro-5H-pyrrolo[3,4-b]pyridin-5-one] to `O=C1c2cc(-c3nnc(C(F)F)o3)ccc2CN1[C@H]1CCCC[C@H]1n1cccn1` (racemic) [Example 527, 6-(5-(difluoromethyl)-1,3,4-oxadiazol-2-yl)-2-((1SR,2RS)-2-(1H-pyrazol-1-yl)cyclohexyl)isoindolin-1-one], the inhibition at 10 µM falls from 100% to 99%.

Compared with `CCc1cc(CC)n([C@@H]2CCCC[C@H]2N2Cc3ccc(-c4nnc(C(F)F)o4)cc3C2=O)n1` [Example 54, 2-((1R,2R)-2-(3,5-diethyl-1H-pyrazol-1-yl)cyclohexyl)-6-(5-(difluoromethyl)-1,3,4-oxadiazol-2-yl)isoindolin-1-one], `C[C@@](O)(C(=O)N[C@@H]1CCCC[C@H]1N1Cc2ccc(-c3nnc(C(F)F)o3)cc2C1=O)C(F)(F)F` [Example 104, (2R)-N-((1R,2R)-2-(6-(5-(difluoromethyl)-1,3,4-oxadiazol-2-yl)-1-oxo-1,3-dihydro-2H-isoindol-2-yl)cyclohexyl)-3,3,3-trifluoro-2-hydroxy-2-methylpropanamide] is lower in inhibition at 10 µM: 98% for the first, 97% for the second.

First: O=C1c2cc(-c3nnc(C(F)F)o3)ccc2CN1c1ccc(F)cc1Br [Example 247, 2-(2-bromo-4-fluorophenyl)-6-(5-(difluoromethyl)-1,3,4-oxadiazol-2-yl)isoindolin-1-one]
Second: COc1ccc(CN2Cc3ncc(-c4nnc(C(F)F)o4)cc3C2=O)cc1 [Example 332, 3-(5-(difluoromethyl)-1,3,4-oxadiazol-2-yl)-6-(4-methoxybenzyl)-6,7-dihydro-5H-pyrrolo[3,4-b]pyridin-5-one]
The inhibition at 10 µM of the first is lower: 94% for the first, 99% for the second.

Going from `CC(C)OC(=O)N1CCCC[C@@H]1CN1Cc2ccc(-c3nnc(C(F)F)o3)cc2C1=O` [Example 43, isopropyl (2R)-2-((6-(5-(difluoromethyl)-1,3,4-oxadiazol-2-yl)-1-oxo-1,3-dihydro-2H-isoindol-2-yl)methyl)piperidine-1-carboxylate] to `O=C(O[C@@H]1CCCC[C@H]1N1Cc2ccc(-c3nnc(C(F)F)o3)cc2C1=O)N1CCCCC1` [Example 254, (1R,2R)-2-(6-(5-(difluoro-methyl)-1,3,4-oxadiazol-2-yl)-1-oxo-1,3-dihydro-2H-isoindol-2-yl)cyclohexyl piperidine-1-carboxylate], the inhibition at 10 µM rises from 96% to 102%.

`O=C1c2cc(-c3nnc(C(F)F)o3)cnc2CN1Cc1ccccc1OCC(F)F` [Example 478, 6-(2-(2,2-difluoroethoxy)benzyl)-3-(5-(difluoro-methyl)-1,3,4-oxadiazol-2-yl)-6,7-dihydro-5H-pyrrolo [3,4-b]pyridin-5-one] gave an inhibition at 10 µM of 100%.
